Data published in the supplement of paper PMC10307832.

What was measured:
Assay in all cases: relative viability (nuclei count vs DMSO), 5 days (fraction); higher = more cells survive
[1] = compound: CC1(COc2ccc3c(c2)ncn3-c2ccc3cccc(N4CCC(N)CC4)c3n2)COC1 [Crenolanib] + COc1cccc2cc(-c3nc([C@H]4CC[C@H](C(=O)O)CC4)n4ncnc(N)c34)[nH]c12 [OSI-027] (partner 0.5 µM)
In short: (§1)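 Medians of duplicate plates are given as relative viability. That measure is the nuclei count in treated wells divided by the count in vehicle wells. Counts were taken on 4× images of lung cancer cell lines in 1536-well plates, 5 days after pin-tool dosing the day after seeding with one drug alone or a fixed anchor-drug dose plus five library-drug doses (not always all listed) in √10 steps.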

[2] = compound: CC1(COc2ccc3c(c2)ncn3-c2ccc3cccc(N4CCC(N)CC4)c3n2)COC1 [Crenolanib] + CS(=O)(=O)N1CCN(Cc2cc3nc(-c4cccc5[nH]ncc45)nc(N4CCOCC4)c3s2)CC1 [Pictilisib] (partner 1 µM)
In short: as §1

[3] = compound: O=C1NC(=O)[C@@H](c2cn3c4c(cccc24)CCC3)[C@@H]1c1c[nH]c2ccccc12 [Tivantinib] + CS(=O)(=O)CCNCc1ccc(-c2ccc3ncnc(Nc4ccc(OCc5cccc(F)c5)c(Cl)c4)c3c2)o1 [Lapatinib] (partner 2 µM)
In short: as §1

[4] = compound: O=C1NC(=O)[C@@H](c2cn3c4c(cccc24)CCC3)[C@@H]1c1c[nH]c2ccccc12 [Tivantinib] + Cc1nc(Nc2ncc(C(=O)Nc3c(C)cccc3Cl)s2)cc(N2CCN(CCO)CC2)n1 [Dasatinib] (partner 0.075 µM)
In short: as §1

Row | Cell Line | relative viability ([1]; first compound 0.01 µM) | relative viability ([1]; first compound 0.03162 µM) | relative viability ([1]; first compound 0.1 µM) | relative viability ([1]; first compound 0.3162 µM) | relative viability ([1]; first compound 1 µM) | relative viability ([2]; first compound 0.01 µM) | relative viability ([2]; first compound 0.03162 µM) | relative viability ([2]; first compound 0.1 µM) | relative viability ([2]; first compound 0.3162 µM) | relative viability ([2]; first compound 1 µM) | relative viability ([3]; first compound 0.01 µM) | relative viability ([3]; first compound 0.03162 µM) | relative viability ([3]; first compound 0.1 µM) | relative viability ([3]; first compound 0.3162 µM) | relative viability ([4]; first compound 0.01 µM) | relative viability ([4]; first compound 0.03162 µM) | relative viability ([4]; first compound 0.1 µM) | relative viability ([4]; first compound 0.3162 µM)
1 | NCI-H1734 | 0.706 | 0.563 | 0.561 | 0.822 | 0.566 | 0.436 | 0.494 | 0.443 | 0.477 | 0.432 | 1.01 | 0.938 | 1.05 | 1.01 | 0.425 | 0.472 | 0.436 | 0.478
2 | NCI-H1666 | 0.85 | 0.933 | 0.834 | 0.906 | 0.85 | 0.605 | 0.352 | 0.401 | 0.406 | 0.411 | 0.743 | 0.609 | 0.574 | 0.574 | 0.765 | 0.785 | 0.77 | 0.742
3 | NCI-H460 | 0.825 | 0.685 | 0.682 | 0.752 | 0.598 | 0.379 | 0.306 | 0.316 | 0.363 | 0.308 | 0.905 | 0.922 | 0.889 | 0.99 | 0.461 | 0.35 | 0.484 | 0.492
4 | LCLC-97TM1 | 0.601 | 0.51 | 0.469 | 0.667 | 0.374 | 0.162 | 0.245 | 0.176 | 0.245 | 0.118 | 1.04 | 0.852 | 1.04 | 0.889 | 0.796 | 0.61 | 0.869 | 0.824
5 | LOU-NH91 | 0.765 | 0.729 | 0.642 | 0.717 | 0.624 | 0.595 | 0.525 | 0.473 | 0.56 | 0.53 | 0.83 | 0.702 | 0.78 | 0.72 | 0.586 | 0.565 | 0.568 | 0.464
6 | NCI-H838 | 0.378 | 0.358 | 0.418 | 0.366 | 0.283 | 0.492 | 0.499 | 0.418 | 0.418 | 0.381 | 1.04 | 0.96 | 0.891 | 0.894 | 0.324 | 0.296 | 0.274 | 0.276
7 | NCI-H1437 | 0.902 | 0.862 | 0.936 | 0.869 | 0.855 | 0.548 | 0.517 | 0.549 | 0.495 | 0.571 | 0.797 | 0.635 | 0.691 | 0.795 | 0.427 | 0.334 | 0.429 | 0.376
8 | NCI-H2087 | 0.664 | 0.642 | 0.471 | 0.546 | 0.467 | 0.804 | 0.918 | 0.665 | 0.761 | 0.861 | 1.1 | 1.16 | 0.862 | 1.13 | 0.83 | 0.942 | 0.825 | 0.913
